# Results as given in patent publication US20250235455A1, “AQUEOUS TICAGRELOR SOLUTIONS, METHOD OF MANUFACTURING AND USES” (HYLORIS DEVELOPMENTS SA, priority 2022, published 2025).
# Like-named read-outs stand apart in the source and are kept apart here.
# Assays:
# Assay type in all cases: physicochemical
# [1] = Storage stability in amber glass vials at pH 7, 7.5 and 8, 19 mM buffer; conditions: for Acetal impurity / Amine impurity / Description / Regiomer / Sum Impurities >0.05 / Total impurity / Triol impurity / pH / Assay: HPβCD 40% w/w; for Assay: in %
# Experimental: To optimize the HPβCD concentration and the pH of the solution for intravenous use, a 12 week/3 months stability study was conducted. […] Its stability was tested at regular intervals.
# A comparison of stability profile at 3 different pH—7, 7.5 and 8—was carried out as below, the manufacturing process for all 3 formulations was kept constant with buffer strength at 19 mM.
# [2] = Maximum solubility of ticagrelor in HPβCD solution without heat; conditions: aqueous with cosolvent or surfactant or cyclodextrin, read-out: Ticagrelor mg/ml (maximum solubility)
# Text: In a further example, the maximum solubility of ticagrelor in an HPβCD solution, without the use of heat, was investigated.
# [3] = Impact of ticagrelor particle size on dissolution
# Text: Two different particle size diameters for the ticagrelor active ingredient were screened, 5.5 and 15 micrometers. The pH and osmolality were not affected.
# [4] = pH and osmolality determination in undiluted batches; conditions: 19 mM phosphate buffer pH 7.5
# Text: From the results obtained in Example 4 it follows that the concentration of excipients may be such that the resulting ticagrelor solution is hypertonic. The osmolality and pH of several batches was checked.
# [5] = 19 mM pH 7 Phosphate Buffer, 1 M
# [6] = 19 mM pH 7 Phosphate Buffer, 2 M
# [7] = 19 mM pH 7 Phosphate Buffer, 3 M
# [8] = 19 mM pH 7 Phosphate Buffer, T0
# [9] = 19 mM pH 7.5 Phosphate Buffer, 1 M
# [10] = 19 mM pH 7.5 Phosphate Buffer, 2 M
# [11] = 19 mM pH 7.5 Phosphate Buffer, 3 M
# [12] = 19 mM pH 7.5 Phosphate Buffer, T0
# [13] = 19 mM pH 8 Phosphate buffer, 1 M
# [14] = 19 mM pH 8 Phosphate buffer, 2 M
# [15] = 19 mM pH 8 Phosphate buffer, 3 M
# [16] = 19 mM pH 8 Phosphate buffer, T0
smiles,measurement,setting,value
"CCCSc1nc(N[C@@H]2C[C@H]2c2ccc(F)c(F)c2)c2nnn([C@@H]3C[C@H](OCCO)[C@@H](O)[C@H]3O)c2n1 [Ticagrelor, (1S,2S,3R,5S)-3-{7-[(1R,2S)-2-(3,4-difluorophenyl)cyclopropylamino]5-(propylthio)-3H-(1,2,3)triazolo (4,5-D)pyrimidin-3-yl}-5-(2 hydroxyethoxy)cyclopentane-1,2-diol]",Acetal impurity,[1]; [5],0.05%
same,Amine impurity,[1]; [5],0.04%
same,Description,[1]; [5],clear
same,Regiomer,[1]; [5],0.03%
same,Sum Impurities >0.05,[1]; [5],0.05%
same,Total impurity,[1]; [5],0.27%
same,Triol impurity,[1]; [5],0.02%
same,pH,[1]; [5],7.34
same,Assay,[1]; [5],99.73
same,Acetal impurity,[1]; [6],0.05%
same,Amine impurity,[1]; [6],0.04%
same,Description,[1]; [6],clear
same,Regiomer,[1]; [6],0.06%
same,Sum Impurities >0.05,[1]; [6],0.11%
same,Total impurity,[1]; [6],0.34%
same,Triol impurity,[1]; [6],0.04%
same,pH,[1]; [6],7.34
same,Assay,[1]; [6],99.81
same,Acetal impurity,[1]; [7],0.05%
same,Amine impurity,[1]; [7],0.06%
same,Description,[1]; [7],clear
same,Regiomer,[1]; [7],0.11%
same,Sum Impurities >0.05,[1]; [7],0.22%
same,Total impurity,[1]; [7],0.40%
same,Triol impurity,[1]; [7],0.04%
same,pH,[1]; [7],7.30
same,Assay,[1]; [7],98.51
same,Acetal impurity,[1]; [8],0.05%
same,Amine impurity,[1]; [8],0.04%
same,Description,[1]; [8],clear
same,Regiomer,[1]; [8],0.00%
same,Sum Impurities >0.05,[1]; [8],0.22%
same,Total impurity,[1]; [8],0.41%
same,Triol impurity,[1]; [8],0.05%
same,pH,[1]; [8],7.33
same,Assay,[1]; [8],98.95
same,Acetal impurity,[1]; [9],0.05%
same,Amine impurity,[1]; [9],0.05%
same,Description,[1]; [9],clear
same,Regiomer,[1]; [9],0.01%
same,Sum Impurities >0.05,[1]; [9],0.14%
same,Total impurity,[1]; [9],0.32%
same,Triol impurity,[1]; [9],0.05%
same,pH,[1]; [9],7.50
same,Assay,[1]; [9],104.47
same,Acetal impurity,[1]; [10],0.05%
same,Amine impurity,[1]; [10],0.05%
same,Description,[1]; [10],clear
same,Regiomer,[1]; [10],0.04%
same,Sum Impurities >0.05,[1]; [10],0.15%
same,Total impurity,[1]; [10],0.29%
same,Triol impurity,[1]; [10],0.05%
same,pH,[1]; [10],7.48
same,Assay,[1]; [10],102.59
same,Acetal impurity,[1]; [11],0.05%
same,Amine impurity,[1]; [11],0.05%
same,Description,[1]; [11],clear
same,Regiomer,[1]; [11],0.08%
same,Sum Impurities >0.05,[1]; [11],0.23%
same,Total impurity,[1]; [11],0.41%
same,Triol impurity,[1]; [11],0.04%
same,pH,[1]; [11],7.55
same,Assay,[1]; [11],102.31
same,Acetal impurity,[1]; [12],0.05%
same,Amine impurity,[1]; [12],0.04%
same,Description,[1]; [12],clear
same,Regiomer,[1]; [12],0.00%
same,Sum Impurities >0.05,[1]; [12],0.11%
same,Total impurity,[1]; [12],0.31%
same,Triol impurity,[1]; [12],0.04%
same,pH,[1]; [12],7.40
same,Assay,[1]; [12],104.27
same,Acetal impurity,[1]; [13],0.05%
same,Amine impurity,[1]; [13],0.05%
same,Description,[1]; [13],clear
same,Regiomer,[1]; [13],0.01%
same,Sum Impurities >0.05,[1]; [13],0.09%
same,Total impurity,[1]; [13],0.26%
same,Triol impurity,[1]; [13],0.03%
same,pH,[1]; [13],8.10
same,Assay,[1]; [13],105.88
same,Acetal impurity,[1]; [14],0.05%
same,Amine impurity,[1]; [14],0.05%
same,Description,[1]; [14],clear
same,Regiomer,[1]; [14],0.03%
same,Sum Impurities >0.05,[1]; [14],0.15%
same,Total impurity,[1]; [14],0.32%
same,Triol impurity,[1]; [14],0.05%
same,pH,[1]; [14],8.04
same,Assay,[1]; [14],105.46
same,Acetal impurity,[1]; [15],0.05%
same,Amine impurity,[1]; [15],0.07%
same,Description,[1]; [15],clear
same,Regiomer,[1]; [15],0.06%
same,Sum Impurities >0.05,[1]; [15],0.23%
same,Total impurity,[1]; [15],0.37%
same,Triol impurity,[1]; [15],0.05%
same,pH,[1]; [15],8.03
same,Assay,[1]; [15],104.46
same,Acetal impurity,[1]; [16],0.05%
same,Amine impurity,[1]; [16],0.04%
same,Description,[1]; [16],clear
same,Regiomer,[1]; [16],0.00%
same,Sum Impurities >0.05,[1]; [16],0.25%
same,Total impurity,[1]; [16],0.43%
same,Triol impurity,[1]; [16],0.06%
same,pH,[1]; [16],8.07
same,Assay,[1]; [16],103.25
same,Stability of solution in HPβCD,[1]; pH range of 7 to 8,stable
same,solubility,"[2]; HPβCD solution 17% w/w, HPβCD 17% w/W",4 mg/mL
same,solubility,"[2]; HPβCD solution 22.5% w/w, HPβCD 22.5% w/W",5 mg/mL
same,solubility,"[2]; HPβCD solution 30% w/w, HPβCD 30% w/W",8 mg/mL
same,solubility,"[2]; HPβCD solution 33% w/w, HPβCD 33% w/W",9 mg/mL
same,solubility,"[2]; HPβCD solution 40% w/w, HPβCD 40% w/W",13 mg/mL
same,Dissolution time,"[3]; D90 5.5 μm, micronized",33 min
same,Osmolality,"[3]; D90 5.5 μm, micronized",751 mOsm/kg
same,pH,"[3]; D90 5.5 μm, micronized",7.68
same,Dissolution time,"[3]; D90 15 μm, unmicronized",125 min
same,Osmolality,"[3]; D90 15 μm, unmicronized",753 mOsm/kg
same,pH,"[3]; D90 15 μm, unmicronized",7.70
same,Assay,[4]; HPβCD 22.5% w/w,98.15%
same,Osmolality undiluted,[4]; HPβCD 22.5% w/w,392 mOsm/kg
same,Total Impurities,[4]; HPβCD 22.5% w/w,0.39%
same,pH undiluted,[4]; HPβCD 22.5% w/w,7.67
same,Assay,[4]; HPβCD 25.0% w/w,103.23%
same,Osmolality undiluted,[4]; HPβCD 25.0% w/w,493 mOsm/kg
same,Total Impurities,[4]; HPβCD 25.0% w/w,0.41%
same,pH undiluted,[4]; HPβCD 25.0% w/w,7.69
same,Assay,[4]; HPβCD 27.5% w/w,104.27%
same,Osmolality undiluted,[4]; HPβCD 27.5% w/w,549 mOsm/kg
same,Total Impurities,[4]; HPβCD 27.5% w/w,0.42%
same,pH undiluted,[4]; HPβCD 27.5% w/w,7.69
same,Assay,[4]; HPβCD 30.0% w/w,107.64%
same,Osmolality undiluted,[4]; HPβCD 30.0% w/w,638 mOsm/kg
same,Total Impurities,[4]; HPβCD 30.0% w/w,0.44%
same,pH undiluted,[4]; HPβCD 30.0% w/w,7.74
same,Assay,[4]; HPβCD 32.5% w/w,99.26%
same,Osmolality undiluted,[4]; HPβCD 32.5% w/w,813 mOsm/kg
same,Total Impurities,[4]; HPβCD 32.5% w/w,0.41%
same,pH undiluted,[4]; HPβCD 32.5% w/w,7.68
